# Results published in patent US6838453B2, “Antagonist derivatives of the vitronectin receptor” (Aventis Pharma S.A., priority 2000, dated 2005).
# Target: human αvβ3 receptor (Homo sapiens, UniProt P05106+P06756)
# Assay: Kistrin/Vitronectin Receptor (αvβ3) ELISA test
# Format: binding
# Conditions: Kistrin-coated plates, co-incubated 3 hours at ambient temperature, 4B12-HRP antibody, OD 450 nm, read-out: K/VnR IC50
# Protocol: Kistrin/Vitronectin Receptor (αvβ3) ELISA Test
# 96-well MaxiSorp planes are coated overnight at […] with 100 μl of Kistrin at 1 μg/ml (dilution in a coating buffer: carbonate 0.05 M/NaOH pH 9.6). The next day, the wells are emptied and the ligands (kistrin) are then fixed (fixing buffers: PBS containing 0.5% BSA (pH=7.4)) for 1 hour at ambient temperature with gentle agitation at 125 rpm. The wells are washed six times (washing buffer: PBS containing 0.05% of Tween 20 (pH 7.7) then the following are added per well and in this order: • 40 μl of incubation buffer • 10 μl of the dilution of the product to be tested (the products are diluted in a 50:50 mixture DMSO/Water) • 50 μl of human αvβ3 receptor (cf Pytella et al. Methods Enzymol. (1987) 144 (Dilution in incubation buffer, to be adapted according to the receptor batch and according to the ligand). The ligand, the αvβ3 receptor and the products to be studied are co-incubated for 3 hours at ambient temperature with gentle agitation at 125 rpm.
# The wells are again washed six times, then incubated for 2 hours at ambient temperature with gentle agitation at 125 rpm, in the presence of 100 μl of anti-receptor antibody conjugated to a peroxidase (The 4B12-HRP antibody is diluted in an incubation buffer (50 mM TRIS pH 7.4; 0.5% BSA; 0.05% Tween 20; 1 mM MnCl2; 50 μM CaCl2; 50 μM MgCl2; 100 mM NaCl) The dilution is adapted according to the receptor batch.
# The wells are then washed six times before measuring the ligand-receptor bond carried out using a peroxidase developer kit (TBM Microwell Peroxidase Substrate System Kirkegaard; Cat. Ref. 50-76-00).
# This kit contains a bottle A of substrate (3,3′,5,5′-tetramethylebenzidine at 0.4 g/l) and a bottle B (H2O2 at 0.02% in a Citrate/Citric acid buffer). Extemporaneously, a volume of A is mixed with a volume of B, then the reaction mixture is distributed at a rate of 100 μl/well.
# The enzymatic reaction develops between 6 and 10 minutes for Kistrin/αvβ3 then its evolution is stopped by the addition of 100 μl of 1M phosphoric acid. The optical density is determined at 450 nm.
# Expression of the Results
# The following curve is plotted: the bond percentage as a function of the logarithm of each concentration of the tested product.
# For each product, the IC50 is determined according to the following formula: IC50=(B0+Bmin)/2 • B0=Maximum bond in the absence of any product • Bmin =Minimum bond in the presence of the highest concentration of the product.
# Sequence of human αvβ3 receptor (P06756 31-889 limits assumed): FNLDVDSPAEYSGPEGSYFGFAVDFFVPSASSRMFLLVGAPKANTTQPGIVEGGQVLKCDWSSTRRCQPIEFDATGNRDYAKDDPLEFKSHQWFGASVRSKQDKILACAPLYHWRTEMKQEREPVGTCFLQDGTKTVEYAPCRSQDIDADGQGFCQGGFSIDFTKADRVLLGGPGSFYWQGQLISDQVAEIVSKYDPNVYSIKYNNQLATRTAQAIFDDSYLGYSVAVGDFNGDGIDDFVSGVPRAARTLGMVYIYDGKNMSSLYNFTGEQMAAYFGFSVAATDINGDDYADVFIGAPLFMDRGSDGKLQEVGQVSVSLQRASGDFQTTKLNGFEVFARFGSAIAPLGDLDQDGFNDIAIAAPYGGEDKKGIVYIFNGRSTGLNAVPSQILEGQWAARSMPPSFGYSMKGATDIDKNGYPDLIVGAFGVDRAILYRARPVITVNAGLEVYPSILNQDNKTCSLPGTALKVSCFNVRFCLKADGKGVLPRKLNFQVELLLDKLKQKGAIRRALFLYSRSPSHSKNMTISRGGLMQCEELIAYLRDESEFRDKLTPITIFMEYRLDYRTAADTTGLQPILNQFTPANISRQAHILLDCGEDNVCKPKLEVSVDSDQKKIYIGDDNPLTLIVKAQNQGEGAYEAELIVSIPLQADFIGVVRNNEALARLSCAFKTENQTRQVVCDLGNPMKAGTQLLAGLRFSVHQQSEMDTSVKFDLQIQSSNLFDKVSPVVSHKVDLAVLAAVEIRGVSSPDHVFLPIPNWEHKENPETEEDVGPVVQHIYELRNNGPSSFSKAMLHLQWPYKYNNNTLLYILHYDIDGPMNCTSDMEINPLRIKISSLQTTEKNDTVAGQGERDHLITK
# Sequence of human αvβ3 receptor (P06756 891-1048 limits assumed): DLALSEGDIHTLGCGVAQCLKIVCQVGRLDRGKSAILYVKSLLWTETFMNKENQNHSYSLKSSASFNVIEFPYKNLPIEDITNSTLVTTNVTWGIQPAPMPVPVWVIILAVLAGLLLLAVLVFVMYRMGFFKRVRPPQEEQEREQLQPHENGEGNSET
# Sequence of human αvβ3 receptor (P05106 27-788): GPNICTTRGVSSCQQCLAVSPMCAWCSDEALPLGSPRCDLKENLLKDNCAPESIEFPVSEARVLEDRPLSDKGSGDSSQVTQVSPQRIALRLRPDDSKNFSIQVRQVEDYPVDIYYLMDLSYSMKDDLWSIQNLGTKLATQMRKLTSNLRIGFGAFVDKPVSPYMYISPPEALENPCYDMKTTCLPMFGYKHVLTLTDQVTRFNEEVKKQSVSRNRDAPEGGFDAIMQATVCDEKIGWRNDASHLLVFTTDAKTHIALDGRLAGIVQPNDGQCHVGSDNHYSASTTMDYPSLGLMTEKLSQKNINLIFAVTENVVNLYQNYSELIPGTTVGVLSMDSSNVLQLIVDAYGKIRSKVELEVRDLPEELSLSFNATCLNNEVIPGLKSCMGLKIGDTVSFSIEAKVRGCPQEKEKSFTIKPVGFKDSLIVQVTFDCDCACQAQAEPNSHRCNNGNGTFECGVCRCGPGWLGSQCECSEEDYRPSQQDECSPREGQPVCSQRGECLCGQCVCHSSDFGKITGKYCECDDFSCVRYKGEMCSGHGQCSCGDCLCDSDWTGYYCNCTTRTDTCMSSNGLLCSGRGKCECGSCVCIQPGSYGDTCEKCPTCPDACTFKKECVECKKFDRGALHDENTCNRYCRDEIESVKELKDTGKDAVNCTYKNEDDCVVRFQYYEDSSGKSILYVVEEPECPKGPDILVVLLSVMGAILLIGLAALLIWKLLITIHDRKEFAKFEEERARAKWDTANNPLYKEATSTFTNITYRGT
row,SMILES,IC50
1,"CN(c1ccccc1)S(=O)(=O)c1ccc2oc(N[C@@H](Cc3ccc(OCCCC(=O)NC4=NCCCN4)cc3)C(=O)O)nc2c1 [Example 31, N-[5-[(N-methylphenylamino)sulphonyl]-2-benzoxazolyl]-O-[4-oxo-4-[(1,4,5,6-tetrahydro-2-pyrimidinyl)amino]butyl]-L-tyrosine]",0.005 µM
2,"O=C(CCCOc1ccc(C[C@H](Nc2nc3ccc(Cl)cc3s2)C(=O)O)cc1)NC1=NCCCN1 [Example 32, N-(6-chloro-2-benzothiazolyl)-O-[4-oxo-4-[(1,4,5,6-tetrahydro-2-pyrimidinyl)amino]butyl]-L-tyrosine]",0.01 µM

# Further lines, results first:
row,IC50,SMILES
1,0.007 µM,"O=C(CCCOc1ccc(C[C@H](Nc2nc3cccc(Br)c3s2)C(=O)O)cc1)NC1=NCCCN1 [Example 33, N-(7-bromo-2-benzothiazolyl)-O-[4-oxo-4-[(1,4,5,6-tetrahydro-2-pyrimidinyl)amino]butyl]-L-tyrosine]"
2,0.018 µM,"O=C(CCCOc1ccc(C[C@H](Nc2nc3cc(Br)ccc3s2)C(=O)O)cc1)NC1=NCCCN1 [Example 34, N-(5-bromo-2-benzothiazolyl)-O-[4-oxo-4-[(1,4,5,6-tetrahydro-2-pyrimidinyl)amino]butyl]-L-tyrosine]"
3,0.018 µM,"O=C(CCCOc1ccc(C[C@H](Nc2nc3ccccc3[nH]2)C(=O)O)cc1)NC1=NCCCN1 [Example 35, N-(1H-benzimidazol-2-yl)-O-[4-oxo-4-[(1,4,5,6-tetrahydro-2-pyrimidinyl)amino]butyl]-L-tyrosine]"
